Values quoted from earlier work in patent publication US20100323985A1, “PHARMACEUTICAL OR COSMETIC PREPARATIONS FOR TOPICAL AND/OR PARENTERAL APPLICATION, PREPARATION METHODS THEREOF AND USE OF SAME” (priority 2007, published 2010).

Assays:
[1] = humans
[2] = in vivo

- excretion in the urine [1]: less than 1 % of total clearance
- immunogenicity [2]: no immunogenicity
Substance: hyaluronic acid
- tolerance [2]: very good
